Test results from ChEMBL document CHEMBL4507315 (2021).

How the values were obtained:
[1] = system: Receptor-type tyrosine-protein kinase FLT3 (Homo sapiens), P36888 [K663Q]; conditions: Compound concentration 100.0 nM
[2] = system: Receptor-type tyrosine-protein kinase FLT3 (Homo sapiens), P36888 [UNDEFINED MUTATION]; conditions: Compound concentration 100.0 nM
[3] = target: Phosphatidylinositol 4-kinase beta (Homo sapiens) (UniProt Q9UBF8); conditions: Compound concentration 100.0 nM
[4] = target: Megakaryocyte-associated tyrosine-protein kinase (Homo sapiens) (UniProt P42679); conditions: Compound concentration 100.0 nM
[5] = system: Tyrosine-protein kinase ABL1 (Homo sapiens), P00519 [H396P]; conditions: Compound concentration 100.0 nM
[6] = target: Muscarinic acetylcholine receptor M2 (Homo sapiens) (UniProt P08172); conditions: Compound concentration 10.0 uM
[7] = target: Cyclin-dependent kinase 16 (Homo sapiens) (UniProt Q00536); conditions: Compound concentration 100.0 nM
[8] = target: Casein kinase II subunit alpha' (Homo sapiens) (UniProt P19784); conditions: Compound concentration 100.0 nM
[9] = target: 1-phosphatidylinositol 3-phosphate 5-kinase (Homo sapiens) (UniProt Q9Y2I7); conditions: Compound concentration 100.0 nM
[10] = target: Serine/threonine-protein kinase Nek6 (Homo sapiens) (UniProt Q9HC98); conditions: Compound concentration 100.0 nM
[11] = target: 5-hydroxytryptamine receptor 2A (Homo sapiens) (UniProt P28223); conditions: Compound concentration 10.0 uM
[12] = target: cGMP-dependent protein kinase 1 (Homo sapiens) (UniProt Q13976); conditions: Compound concentration 100.0 nM
[13] = target: Fibroblast growth factor receptor 4 (Homo sapiens) (UniProt P22455); conditions: Compound concentration 100.0 nM
[14] = target: Tyrosine-protein kinase Fgr (Homo sapiens) (UniProt P09769); conditions: Compound concentration 100.0 nM
Chain of Tyrosine-protein kinase Fgr (Homo sapiens) (P09769 2-529 limits assumed): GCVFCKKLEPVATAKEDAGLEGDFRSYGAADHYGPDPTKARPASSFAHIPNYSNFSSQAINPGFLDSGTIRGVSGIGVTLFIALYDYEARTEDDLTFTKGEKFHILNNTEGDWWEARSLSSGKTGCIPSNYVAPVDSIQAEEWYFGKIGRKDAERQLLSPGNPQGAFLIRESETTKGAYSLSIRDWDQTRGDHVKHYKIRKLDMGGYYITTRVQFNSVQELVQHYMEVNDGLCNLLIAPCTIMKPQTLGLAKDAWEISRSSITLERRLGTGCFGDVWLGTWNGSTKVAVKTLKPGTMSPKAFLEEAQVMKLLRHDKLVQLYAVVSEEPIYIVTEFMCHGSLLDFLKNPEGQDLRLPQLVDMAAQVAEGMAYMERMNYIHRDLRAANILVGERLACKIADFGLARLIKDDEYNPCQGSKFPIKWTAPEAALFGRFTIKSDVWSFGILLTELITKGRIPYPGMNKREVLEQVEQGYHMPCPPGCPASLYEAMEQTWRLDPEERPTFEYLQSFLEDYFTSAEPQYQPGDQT

[15] = target: Macrophage-stimulating protein receptor (Homo sapiens) (UniProt Q04912); conditions: Compound concentration 100.0 nM
[16] = target: Dual specificity tyrosine-phosphorylation-regulated kinase 1B (Homo sapiens) (UniProt Q9Y463); conditions: Compound concentration 100.0 nM
[17] = target: Cyclin-dependent kinase-like 1 (Homo sapiens) (UniProt Q00532); conditions: Compound concentration 100.0 nM
[18] = target: Misshapen-like kinase 1 (Homo sapiens) (UniProt Q8N4C8); conditions: Compound concentration 100.0 nM
Chain of Misshapen-like kinase 1 (Homo sapiens) (Q8N4C8 whole entry, looked up): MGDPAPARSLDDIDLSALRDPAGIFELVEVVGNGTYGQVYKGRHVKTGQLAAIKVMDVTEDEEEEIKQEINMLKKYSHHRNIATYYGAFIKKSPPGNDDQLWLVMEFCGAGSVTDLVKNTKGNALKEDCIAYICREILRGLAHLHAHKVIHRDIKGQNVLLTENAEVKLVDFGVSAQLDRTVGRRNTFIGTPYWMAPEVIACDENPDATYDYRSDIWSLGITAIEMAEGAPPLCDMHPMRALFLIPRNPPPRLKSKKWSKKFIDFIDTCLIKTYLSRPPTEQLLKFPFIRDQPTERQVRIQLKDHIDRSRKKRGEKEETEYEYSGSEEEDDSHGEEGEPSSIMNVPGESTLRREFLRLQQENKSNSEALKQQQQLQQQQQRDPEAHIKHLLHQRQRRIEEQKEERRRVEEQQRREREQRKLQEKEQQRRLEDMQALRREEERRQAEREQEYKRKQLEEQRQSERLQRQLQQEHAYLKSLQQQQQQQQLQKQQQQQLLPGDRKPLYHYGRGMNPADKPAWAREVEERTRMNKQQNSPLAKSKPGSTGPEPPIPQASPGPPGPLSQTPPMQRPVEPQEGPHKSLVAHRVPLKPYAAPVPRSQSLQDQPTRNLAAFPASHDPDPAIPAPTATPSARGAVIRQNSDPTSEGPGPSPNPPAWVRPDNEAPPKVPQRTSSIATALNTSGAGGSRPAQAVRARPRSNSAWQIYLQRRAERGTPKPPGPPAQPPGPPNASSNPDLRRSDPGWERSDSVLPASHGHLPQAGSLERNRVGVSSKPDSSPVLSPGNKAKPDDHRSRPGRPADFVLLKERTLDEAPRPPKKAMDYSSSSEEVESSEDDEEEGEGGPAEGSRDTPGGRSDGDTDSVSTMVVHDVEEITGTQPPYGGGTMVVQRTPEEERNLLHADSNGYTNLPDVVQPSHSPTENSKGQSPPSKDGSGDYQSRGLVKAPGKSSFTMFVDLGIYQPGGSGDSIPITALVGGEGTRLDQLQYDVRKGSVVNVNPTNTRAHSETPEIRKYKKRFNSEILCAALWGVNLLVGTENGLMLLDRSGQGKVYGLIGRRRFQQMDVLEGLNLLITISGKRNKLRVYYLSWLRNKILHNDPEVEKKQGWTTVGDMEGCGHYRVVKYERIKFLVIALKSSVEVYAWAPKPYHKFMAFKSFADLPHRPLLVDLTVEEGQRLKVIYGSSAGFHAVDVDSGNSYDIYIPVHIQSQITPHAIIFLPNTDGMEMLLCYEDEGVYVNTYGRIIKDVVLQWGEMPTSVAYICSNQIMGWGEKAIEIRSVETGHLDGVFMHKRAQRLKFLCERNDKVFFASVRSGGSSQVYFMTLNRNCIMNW

[19] = target: 5-hydroxytryptamine receptor 1A (Homo sapiens) (UniProt P08908); conditions: Compound concentration 10.0 uM
[20] = target: Serine/threonine-protein kinase D2 (Homo sapiens) (UniProt Q9BZL6); conditions: Compound concentration 100.0 nM
[21] = target: Microtubule-associated serine/threonine-protein kinase 1 (Homo sapiens) (UniProt Q9Y2H9); conditions: Compound concentration 100.0 nM
[22] = target: Cyclin-dependent kinase 2 homolog (Plasmodium falciparum (isolate 3D7)) (UniProt P61075); conditions: Compound concentration 100.0 nM
[23] = system: Tyrosine-protein kinase ABL1 (Homo sapiens), P00519 [F317I]; conditions: Compound concentration 100.0 nM
[24] = target: Protein kinase C delta type (Homo sapiens) (UniProt Q05655); conditions: Compound concentration 100.0 nM
Chain of Protein kinase C delta type (Homo sapiens) (Q05655 whole entry, looked up): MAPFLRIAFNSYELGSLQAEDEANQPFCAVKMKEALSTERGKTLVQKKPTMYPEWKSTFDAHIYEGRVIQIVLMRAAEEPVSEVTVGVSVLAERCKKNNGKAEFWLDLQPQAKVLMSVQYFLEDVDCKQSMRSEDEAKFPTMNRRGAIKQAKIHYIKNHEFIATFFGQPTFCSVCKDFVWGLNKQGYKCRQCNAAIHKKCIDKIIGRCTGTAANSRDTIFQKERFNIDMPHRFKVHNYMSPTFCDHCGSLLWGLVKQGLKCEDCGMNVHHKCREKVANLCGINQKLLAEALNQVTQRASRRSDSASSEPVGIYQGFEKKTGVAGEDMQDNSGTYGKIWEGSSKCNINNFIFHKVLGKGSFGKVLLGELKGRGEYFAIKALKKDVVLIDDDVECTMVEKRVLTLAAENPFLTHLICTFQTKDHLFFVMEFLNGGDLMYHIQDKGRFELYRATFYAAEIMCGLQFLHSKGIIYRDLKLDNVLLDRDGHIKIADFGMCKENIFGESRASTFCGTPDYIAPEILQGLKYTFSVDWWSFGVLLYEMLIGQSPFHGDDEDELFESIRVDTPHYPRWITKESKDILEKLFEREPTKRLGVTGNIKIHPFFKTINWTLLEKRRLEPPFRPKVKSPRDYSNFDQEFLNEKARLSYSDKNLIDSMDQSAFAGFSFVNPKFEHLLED

[25] = target: Sigma non-opioid intracellular receptor 1 (Homo sapiens) (UniProt Q99720); conditions: Compound concentration 10.0 uM
[26] = target: Mitogen-activated protein kinase kinase kinase 14 (Homo sapiens) (UniProt Q99558); conditions: Compound concentration 100.0 nM
[27] = target: Serine/threonine-protein kinase MAK (Homo sapiens) (UniProt P20794); conditions: Compound concentration 100.0 nM
Chain of Serine/threonine-protein kinase MAK (Homo sapiens) (P20794 whole entry): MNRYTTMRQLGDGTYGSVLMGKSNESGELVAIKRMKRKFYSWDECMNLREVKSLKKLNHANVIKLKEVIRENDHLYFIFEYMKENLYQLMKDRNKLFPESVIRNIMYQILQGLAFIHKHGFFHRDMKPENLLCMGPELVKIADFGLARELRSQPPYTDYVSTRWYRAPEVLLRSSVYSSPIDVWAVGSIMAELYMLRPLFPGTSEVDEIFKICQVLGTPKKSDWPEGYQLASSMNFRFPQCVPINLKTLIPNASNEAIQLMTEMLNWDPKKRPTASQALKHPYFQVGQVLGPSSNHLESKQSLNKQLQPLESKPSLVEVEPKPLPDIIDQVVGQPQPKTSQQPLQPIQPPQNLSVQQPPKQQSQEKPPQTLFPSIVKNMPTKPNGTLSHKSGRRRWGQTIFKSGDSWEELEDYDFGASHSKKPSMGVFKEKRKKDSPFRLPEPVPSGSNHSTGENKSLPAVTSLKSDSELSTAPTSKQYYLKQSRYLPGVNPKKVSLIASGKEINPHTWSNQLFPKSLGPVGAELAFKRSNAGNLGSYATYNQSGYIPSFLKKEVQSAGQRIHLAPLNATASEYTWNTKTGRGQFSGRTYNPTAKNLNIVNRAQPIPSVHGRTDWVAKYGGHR

[28] = target: Protein kinase C theta type (Homo sapiens) (UniProt Q04759); conditions: Compound concentration 100.0 nM
[29] = target: Cyclin-dependent kinase 8 (Homo sapiens) (UniProt P49336); conditions: Compound concentration 100.0 nM
[30] = target: Eukaryotic translation initiation factor 2-alpha kinase 1 (Homo sapiens) (UniProt Q9BQI3); conditions: Compound concentration 100.0 nM
[31] = target: Fibroblast growth factor receptor 1 (Homo sapiens) (UniProt P11362); conditions: Compound concentration 100.0 nM
[32] = target: Platelet-derived growth factor receptor alpha (Homo sapiens) (UniProt P16234); conditions: Compound concentration 100.0 nM
[33] = system: Receptor-type tyrosine-protein kinase FLT3 (Homo sapiens), P36888 [D835V]; conditions: Compound concentration 100.0 nM
[34] = target: Mitogen-activated protein kinase 11 (Homo sapiens) (UniProt Q15759); conditions: Compound concentration 100.0 nM
[35] = target: Delta-type opioid receptor (Homo sapiens) (UniProt P41143); conditions: Compound concentration 10.0 uM
Chain of Delta-type opioid receptor (Homo sapiens) (P41143 whole entry): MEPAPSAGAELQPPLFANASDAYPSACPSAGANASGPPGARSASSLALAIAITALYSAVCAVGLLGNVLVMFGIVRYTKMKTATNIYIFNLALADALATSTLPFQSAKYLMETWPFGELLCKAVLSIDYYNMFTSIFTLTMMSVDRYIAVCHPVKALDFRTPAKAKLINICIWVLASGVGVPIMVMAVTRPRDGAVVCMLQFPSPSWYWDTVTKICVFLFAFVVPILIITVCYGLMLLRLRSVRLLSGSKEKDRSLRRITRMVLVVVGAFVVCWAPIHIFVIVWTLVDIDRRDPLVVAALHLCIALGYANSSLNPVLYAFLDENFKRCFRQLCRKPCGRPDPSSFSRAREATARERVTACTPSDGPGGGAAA

[36] = target: Calcium/calmodulin-dependent protein kinase type 1G (Homo sapiens) (UniProt Q96NX5); conditions: Compound concentration 100.0 nM
[37] = system: Receptor-type tyrosine-protein kinase FLT3 (Homo sapiens), P36888 [N841I]; conditions: Compound concentration 100.0 nM
[38] = target: Inhibitor of nuclear factor kappa-B kinase subunit epsilon (Homo sapiens) (UniProt Q14164); conditions: Compound concentration 100.0 nM
[39] = target: Tyrosine-protein kinase Fes/Fps (Homo sapiens) (UniProt P07332); conditions: Compound concentration 100.0 nM
[40] = system: Receptor-type tyrosine-protein kinase FLT3 (Homo sapiens), P36888 [R834Q]; conditions: Compound concentration 100.0 nM
[41] = target: Ephrin type-A receptor 8 (Homo sapiens) (UniProt P29322); conditions: Compound concentration 100.0 nM
Chain of Ephrin type-A receptor 8 (Homo sapiens) (P29322 whole entry): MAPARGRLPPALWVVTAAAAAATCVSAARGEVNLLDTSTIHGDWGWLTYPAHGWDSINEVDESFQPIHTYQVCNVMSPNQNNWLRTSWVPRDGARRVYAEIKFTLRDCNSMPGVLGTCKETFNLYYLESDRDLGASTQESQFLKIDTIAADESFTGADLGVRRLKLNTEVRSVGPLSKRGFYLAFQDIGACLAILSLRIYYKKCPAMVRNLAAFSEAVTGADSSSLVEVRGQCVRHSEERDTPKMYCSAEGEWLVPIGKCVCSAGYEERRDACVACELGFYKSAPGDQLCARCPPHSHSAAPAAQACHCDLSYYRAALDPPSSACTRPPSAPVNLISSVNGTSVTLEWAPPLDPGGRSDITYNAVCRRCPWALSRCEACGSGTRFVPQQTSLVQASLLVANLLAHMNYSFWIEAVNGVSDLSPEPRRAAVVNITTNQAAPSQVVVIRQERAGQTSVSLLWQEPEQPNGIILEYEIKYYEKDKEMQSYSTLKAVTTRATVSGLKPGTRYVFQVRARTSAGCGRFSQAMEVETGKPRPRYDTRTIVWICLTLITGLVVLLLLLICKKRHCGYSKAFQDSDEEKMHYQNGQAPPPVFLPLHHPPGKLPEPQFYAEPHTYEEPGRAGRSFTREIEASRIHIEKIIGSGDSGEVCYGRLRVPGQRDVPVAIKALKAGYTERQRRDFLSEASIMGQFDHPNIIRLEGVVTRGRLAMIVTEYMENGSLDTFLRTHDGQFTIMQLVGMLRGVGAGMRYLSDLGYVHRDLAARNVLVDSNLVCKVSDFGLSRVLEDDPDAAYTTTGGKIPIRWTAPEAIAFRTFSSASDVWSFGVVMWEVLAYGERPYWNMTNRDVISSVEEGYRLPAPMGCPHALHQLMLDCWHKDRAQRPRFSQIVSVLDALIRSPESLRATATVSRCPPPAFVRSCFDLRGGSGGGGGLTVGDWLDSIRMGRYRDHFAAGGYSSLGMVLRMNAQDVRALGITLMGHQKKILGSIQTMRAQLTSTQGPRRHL

[42] = target: Serine/threonine-protein kinase 4 (Homo sapiens) (UniProt Q13043); conditions: Compound concentration 100.0 nM
[43] = target: Calcium/calmodulin-dependent protein kinase type II subunit alpha (Homo sapiens) (UniProt Q9UQM7); conditions: Compound concentration 100.0 nM
Chain of Calcium/calmodulin-dependent protein kinase type II subunit alpha (Homo sapiens) (Q9UQM7 whole entry): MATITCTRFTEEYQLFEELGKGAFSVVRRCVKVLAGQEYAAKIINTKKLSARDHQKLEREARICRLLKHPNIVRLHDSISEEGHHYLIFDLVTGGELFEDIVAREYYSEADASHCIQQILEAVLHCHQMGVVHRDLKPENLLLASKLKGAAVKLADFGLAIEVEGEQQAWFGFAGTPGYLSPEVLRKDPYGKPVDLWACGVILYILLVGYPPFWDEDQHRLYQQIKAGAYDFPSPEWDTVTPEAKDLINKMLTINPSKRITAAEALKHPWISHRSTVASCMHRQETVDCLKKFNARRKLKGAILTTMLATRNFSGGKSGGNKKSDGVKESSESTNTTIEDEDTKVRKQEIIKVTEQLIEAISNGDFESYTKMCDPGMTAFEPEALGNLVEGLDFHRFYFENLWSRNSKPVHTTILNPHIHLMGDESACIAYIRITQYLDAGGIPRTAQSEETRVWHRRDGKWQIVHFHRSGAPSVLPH

[44] = system: Hepatocyte growth factor receptor (Homo sapiens), P08581 [Y1235D]; conditions: Compound concentration 100.0 nM
[45] = target: Serine/threonine-protein kinase 38-like (Homo sapiens) (UniProt Q9Y2H1); conditions: Compound concentration 100.0 nM

O=C(NCCCC1CCCCC1)c1ccc(CNC(=O)c2cnn(-c3ccccc3)c2C(F)(F)F)cc1 [SR-321]
active: residual activity [45] 20%
inactive: residual activity [1] 100% | residual activity [2] 100% | residual activity [3] 77% | residual activity [4] 100% | residual activity [5] 99% | inhibition [6] 19.3% | residual activity [7] 100% | residual activity [8] 88% | residual activity [9] 65% | residual activity [10] 83% | inhibition [11] 8.57% | residual activity [12] 100% | residual activity [13] 100% | residual activity [14] 95% | residual activity [15] 100% | residual activity [16] 100% | residual activity [17] 80% | residual activity [18] 97% | inhibition [19] 20.1% | residual activity [20] 100% | residual activity [21] 88% | residual activity [22] 100% | residual activity [23] 100% | residual activity [24] 100% | inhibition [25] 20.1% | residual activity [26] 90% | residual activity [27] 100% | residual activity [28] 100% | residual activity [29] 97% | residual activity [30] 95% | residual activity [31] 100% | residual activity [32] 92% | residual activity [33] 88% | residual activity [34] 100% | inhibition [35] 12.9% | residual activity [36] 100% | residual activity [37] 88% | residual activity [38] 78% | residual activity [39] 100% | residual activity [40] 100% | residual activity [41] 95% | residual activity [42] 100% | residual activity [43] 100% | residual activity [44] 100%

Nc1c(C(=O)NCc2ccc(C(=O)NCCCC3CCCCC3)cc2)cnn1-c1ccccc1 [SR-318]
active: residual activity [34] 3.4% | residual activity [45] 44%
inactive: residual activity [1] 100% | residual activity [2] 100% | residual activity [3] 100% | residual activity [4] 100% | residual activity [5] 100% | inhibition [6] 22.5% | residual activity [7] 97% | residual activity [8] 100% | residual activity [9] 100% | residual activity [10] 100% | inhibition [11] 23.7% | residual activity [12] 74% | residual activity [13] 97% | residual activity [14] 100% | residual activity [15] 100% | residual activity [16] 100% | residual activity [17] 100% | residual activity [18] 100% | inhibition [19] -1.43% | residual activity [20] 100% | residual activity [21] 100% | residual activity [22] 100% | residual activity [23] 100% | residual activity [24] 88% | inhibition [25] 45.1% | residual activity [26] 100% | residual activity [27] 100% | residual activity [28] 100% | residual activity [29] 96% | residual activity [30] 100% | residual activity [31] 71% | residual activity [32] 100% | residual activity [33] 100% | inhibition [35] 24.1% | residual activity [36] 100% | residual activity [37] 95% | residual activity [38] 100% | residual activity [39] 100% | residual activity [40] 100% | residual activity [41] 100% | residual activity [42] 100% | residual activity [43] 100% | residual activity [44] 94%
